Test results as given in US20250275965A1, “COMPOUNDS AS CASEIN KINASE INHIBITORS” (GRITSCIENCE BIOPHARMACEUTICALS CO.,LTD., priority 2020, published 2025).

Key:
CK1δ = CK1δ (Homo sapiens, UniProt P48730); assay: CK1δ kinase assay (Kinase-Glo); assay type: biochemical; conditions: 10 μM ATP, 2 nM wild type kinase, 85 min at 25° C.
Procedure: The reaction mixture was incubated for 85 min at 25° C.; detection was carried out as described for the Kinase-Glo Assay (Promega). Luminescent output was measured on the Perkin Elmer Envision plate reader (PerkinElmer, Waltham, MA).

[1] = Intrinsic clearance in liver microsomes (mouse); assay type: in vitro ADME; conditions: Mouse liver microsomes 0.5 mg/mL, 2 μM compound, 37° C.; for microsomal CLint at 2 μM: read-out: in vitro CLint (μL/min/mg protein); for half-life at 2 μM: read-out: in vitro t1/2
Procedure: (§1) 1. The master solution was prepared according to Table 4.
(§2) 2. Three separated experiments were performed as follows. a) With NADPH: 10 μL of 20 mg/mL liver microsomes and 40 μL of 10 mM NADPH were added to the incubations. The final concentrations of microsomes and NADPH were 0.5 mg/mL and 1 mM, respectively. b) Without NADPH: 10 μL of 20 mg/mL liver microsomes and 40 μL of ultra-pure H2O were added to the incubations. The final concentration of microsomes was 0.5 mg/mL. c) Heat-inactivated microsomes without NADPH: 10 μL of 20 mg/mL heat-inactivated liver microsomes and 40 μL of ultra-pure H2O were added to the incubations. The final concentration of microsomes was 0.5 mg/mL.
(§3) 3. The reaction was started with the addition of 4 μL of 200 μM test compound solution or control compound solution at the final concentration of 2 μM and carried out at 37° C.
(§4) 4. Aliquots of 50 μL were taken from the reaction solution at 0, 15, 30, 45 and 60 min. The reaction was stopped by the addition of 4 volumes of cold acetonitrile with IS (100 nM alprazolam, 200 nM labetalol, 200 nM caffeine and 2 μM ketoprofen). Samples were centrifuged at 3, 220 g for 40 minutes.
(§5) All calculations were carried out using Microsoft Excel.
(§6) Peak areas were determined from extracted ion chromatograms. The slope value, k, was determined by linear regression of the natural logarithm of the remaining percentage of the parent drug vs. incubation time curve.
(§7) The in vitro half-life (in vitro t1/2) was determined from the slope value:
(§8) Conversion of the in vitro t1/2 (min) into the in vitro intrinsic clearance (in vitro CLint, in μL/min/mg protein) was done using the following equation (mean of duplicate determinations): […]

in vitro = conditions: human, Caco-2, pH 7.4
Procedure: 1) 50 μL and 25 mL of cell culture medium were added to each well of the Transwell insert and reservoir, respectively. And then the HTS transwell plates were incubated at 37° C., 5% CO2 for 1 hour before cell seeding.
2) Caco-2 cells were diluted to 6.86×10^5 cells/mL with culture medium and 50 μL of cell suspension were dispensed into the filter well of the 96-well HTS Transwell plate. Cells were cultivated for 14-18 days in a cell culture incubator at 37° C., 5% CO2, 95% relative humidity. Cell culture medium was replaced every other day, beginning no later than 24 hours after initial plating.
10 mM stock solutions of test compounds were prepared in DMSO. The stock solutions of positive controls were prepared in DMSO at the concentration of 10 mM.
1) Medium was removed from the reservoir and each Transwell insert and replaced with prewarmed fresh culture medium.
2) Transepithelial electrical resistance (TEER) across the monolayer was measured using Millicell Epithelial Volt-Ohm measuring system (Millipore, USA).
3) The Plate was returned to the incubator once the measurement was done.
The TEER value was calculated according to the following equation: TEER measurement (ohms)*Area of membrane (cm^2)=TEER value (ohm·cm^2) TEER value should be greater than 230 ohm·cm^2, which indicates the well-qualified Caco-2 monolayer.
1) The Caco-2 plate was removed from the incubator and washed twice with pre-warmed HBSS (10 mM HEPES, pH 7.4), and then incubated at 37° C. for 30 minutes.
2) The stock solutions of control compounds and test compounds were diluted in DMSO to get 1 mM solutions and then diluted with HBSS (10 mM HEPES, pH 7.4) get 5 μM working solutions. The final concentration of DMSO in the incubation system was 0.5%.
3) To determine the rate of drug transport in the apical to basolateral direction. 125 μL of 5 μM working solution of control compound and test compounds were added to the Transwell insert (apical compartment), and transfer 50 μL sample (DO sample) immediately from the apical compartment to a new 96-well plate. Fill the wells in the receiver plate (basolateral compartment) with 235 μL of HBSS (10 mM HEPES, pH 7.4).
4) To determine the rate of drug transport in the basolateral to apical direction. 285 μL of 5 μM working solution of control compound and test compounds were to the receiver plate wells (basolateral compartment), and transfer 50 μL sample (DO sample) immediately from the basolateral compartment to a new 96-well plate. Fill the wells in the Transwell insert (apical compartment) with 75 μL of HBSS (10 mM HEPES, pH 7.4). The assay was performed in duplicate.
5) The plates were incubated at 37° C. for 2 hours.
Samples were Vortexed for 5 minutes and then centrifuged at 3,220 g for 40 minutes. An aliquot of 100 μL of the supernatant was mixed with an appropriate volume of ultra-pure water before LC-MS/MS analysis.
7) To determine the Lucifer Yellow leakage after 2 hour transport period, stock solution of Lucifer yellow was prepared in water and diluted with HBSS (10 mM HEPES, pH 7.4) to reach the final concentration of 100 μM. 100 μL of the Lucifer yellow solution was added to each Transwell insert (apical compartment), followed by filling the wells in the receiver plate (basolateral compartment) with 300 μL of HBSS (10 mM HEPES, pH 7.4). The plates were Incubated at 37° C. for 30 mins. 80 μL samples were removed directly from the apical and basolateral wells (using the basolateral access holes) and transferred to wells of new 96 wells plates. The Lucifer Yellow fluorescence (to monitor monolayer integrity) signal was measured in a fluorescence plate reader at 485 nm excitation and 530 nm emission.
The apparent permeability coefficient (Papp), in units of centimeter per second, can be calculated for Caco-2 drug transport assays using the following equation: […]

[2] = Intrinsic clearance in liver microsomes (human); assay type: in vitro ADME; conditions: Human liver microsomes 0.5 mg/mL, 2 μM compound, 37° C.; for microsomal CLint at 2 μM: read-out: in vitro CLint (μL/min/mg protein); for half-life at 2 μM: read-out: in vitro t1/2
Procedure: as §1, §2, §3, §4, §5, §6, §7, §8

Sequence of CK1δ (P48730 whole entry): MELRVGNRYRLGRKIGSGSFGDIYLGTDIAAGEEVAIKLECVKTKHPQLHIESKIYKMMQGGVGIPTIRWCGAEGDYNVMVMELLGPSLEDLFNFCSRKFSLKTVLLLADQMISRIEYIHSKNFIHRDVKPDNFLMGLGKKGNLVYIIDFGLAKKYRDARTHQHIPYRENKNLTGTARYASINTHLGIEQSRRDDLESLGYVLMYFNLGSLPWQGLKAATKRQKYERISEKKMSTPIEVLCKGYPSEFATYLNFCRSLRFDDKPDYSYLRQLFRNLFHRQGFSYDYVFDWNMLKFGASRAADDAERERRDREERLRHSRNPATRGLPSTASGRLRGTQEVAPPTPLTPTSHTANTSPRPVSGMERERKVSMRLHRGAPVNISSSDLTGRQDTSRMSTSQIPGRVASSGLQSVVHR

| SMILES | EC50 (CK1δ) [µM] | microsomal CLint at 2 μM [1] [µL/min/mg] | half-life at 2 μM [1] [h] | Papp A→B at 2 h, 5 μM (in vitro) [nm/s] | Papp B→A at 2 h, 5 μM (in vitro) [nm/s] | efflux ratio at 2 h, 5 μM (in vitro) | microsomal CLint at 2 μM [2] [µL/min/mg] | half-life at 2 μM [2] [h] |
| --- | --- | --- | --- | --- | --- | --- | --- | --- |
| Cn1cc(-c2ccnc3ccnn23)c(-c2ccc(F)cc2)n1 [Compound I-1, 7-(3-(4-fluorophenyl)-1-methyl-1H-pyrazol-4-yl)pyrazolo[1,5-a]pyrimidine] | 15 |  |  |  |  |  |  |  |
| Cc1cn2nccc(-c3cn(C)nc3-c3ccc(F)cc3)c2n1 [Compound I-4, 8-(3-(4-fluorophenyl)-1-methyl-1H-pyrazol-4-yl)-2-methyli-midazo[1,2-b]pyridazine] | 2.7 |  |  |  |  |  |  |  |
| Cn1cc(-c2ccnn3cnnc23)c(-c2ccc(F)cc2)n1 [Compound I-10, 8-(3-(4-fluorophenyl)-1-methyl-1H-pyrazol-4-yl)-[1,2,4]triazo-lo[4,3-b]pyridazine] | 7.9 |  |  |  |  |  |  |  |
| COC(=O)c1cn2nccc(-c3cn(C)nc3-c3ccc(F)cc3)c2n1 [Compound I-12, methyl 8-(3-(4-fluorophenyl)-1-methyl-1H-pyrazol-4-yl)imidazo[1,2-b]pyridazine-2-carboxylate] | 8.6 |  |  |  |  |  |  |  |
| Cn1cc(-c2ccnn3cc(CN)nc23)c(-c2ccc(F)cc2)n1 [Compound I-14] | 0.2 | 5.9 | 3.92 | 130 | 315 | 2.43 | 0.93 | 24.9 |
| CNC(=O)c1cn2nccc(-c3cn(C)nc3-c3ccc(F)cc3)c2n1 [Compound I-16, 8-(3-(4-fluorophenyl)-1-methyl-1H-pyrazol-4-yl)-N-methyli-midazo[1,2-b]pyridazine-2-carboxamide] | 0.7 | 66.8 | 0.346 | 224 | 208 | 0.93 | 12.5 | 1.85 |
| Cn1cc(-c2ccnn3cc(C(C)(C)O)nc23)c(-c2ccc(F)cc2)n1 [Compound I-17, 2-(8-(3-(4-fluorophenyl)-1-methyl-1H-pyrazol-4-yl)imidazo[1,2-b]pyridazin-2-yl)propan-2-ol] | 0.4 | 19.1 | 1.21 | 253 | 194 | 0.77 | 3.25 | 7.11 |
| CNc1cn2nccc(-c3cn(C)nc3-c3ccc(F)cc3)c2n1 [Compound I-19, 8-(3-(4-fluorophenyl)-1-methyl-1H-pyrazol-4-yl)-N-methyli-midazo[1,2-b]pyridazin-2-amine] | 25 |  |  |  |  |  |  |  |
| CC(=O)Nc1cn2nccc(-c3cn(C)nc3-c3ccc(F)cc3)c2n1 [Compound I-20, N-(8-(3-(4-fluorophenyl)-1-methyl-1H-pyrazol-4-yl)imidazo [1,2-b]pyridazin-2-yl)acetamide] | 2.5 |  |  |  |  |  |  |  |
| CNCc1cn2nccc(-c3cn(C)nc3-c3ccc(F)cc3)c2n1 [Compound I-22, 1-(8-(3-(4-fluorophenyl)-1-methyl-1H-pyrazol-4-yl)imidazo[1,2-b]pyridazin-2-yl)-N-methylmethanamine] | 0.3 | 18.9 | 1.22 | 127 | 321 | 2.52 | 2.64 | 8.76 |
| CC(=O)N1CCn2nc(-c3ccc(F)cc3)c(-c3ccnc4[nH]ccc34)c2C1 [Compound I-24, 1-(2-(4-fluorophenyl)-3-(1H-pyrrolo[2,3-b]pyridin-4-yl)-6,7-dihydropyrazolo[1,5-a]pyrazin-5(4H)-yl)ethan-1-one] | 0.8 | 24.7 | 0.935 | 52.8 | 184 | 3.49 | 7.47 | 3.09 |

Further compounds by falling EC50 (CK1δ), results first:

| EC50 (CK1δ) [µM] | microsomal CLint at 2 μM [1] [µL/min/mg] | half-life at 2 μM [1] [h] | Papp A→B at 2 h, 5 μM (in vitro) [nm/s] | Papp B→A at 2 h, 5 μM (in vitro) [nm/s] | efflux ratio at 2 h, 5 μM (in vitro) | microsomal CLint at 2 μM [2] [µL/min/mg] | half-life at 2 μM [2] [h] | SMILES |
| --- | --- | --- | --- | --- | --- | --- | --- | --- |
| 5.3 |  |  |  |  |  |  |  | CC(=O)NCc1cn2nccc(-c3cn(C)nc3-c3ccc(F)cc3)c2n1 [Compound I-21, N-((8-(3-(4-fluorophenyl)-1-methyl-1H-pyrazol-4-yl)imidazo [1,2-b]pyridazin-2-yl)methyl)acetamide] |
| 3.3 |  |  |  |  |  |  |  | Cn1cc(-c2ccnn3c(N)cnc23)c(-c2ccc(F)cc2)n1 [Compound I-8, 8-(3-(4-fluorophenyl)-1-methyl-1H-pyrazol-4-yl)imidazo[1,2-b]pyridazin-3-amine] |
| 2.8 |  |  |  |  |  |  |  | Cn1cc(-c2ccnn3cc(N)nc23)c(-c2ccc(F)cc2)n1 [Compound I-13, 8-(3-(4-fluorophenyl)-1-methyl-1H-pyrazol-4-yl)imidazo[1,2-b]pyridazin-2-amine] |
| 2.5 |  |  |  |  |  |  |  | Cn1cc(-c2ccnn3cccc23)c(-c2ccc(F)cc2)n1 [Compound I-9, 4-(3-(4-fluorophenyl)-1-methyl-1H-pyrazol-4-yl)pyrrolo[1,2-b]pyridazine] |
| 0.5 | 38.8 | 0.595 | 248 | 252 | 1.02 |  |  | Cn1cc(-c2ccnn3cc(C(N)=O)nc23)c(-c2ccc(F)cc2)n1 [Compound I-15, 8-(3-(4-fluorophenyl)-1-methyl-1H-pyrazol-4-yl)imidazo[1,2-b]pyridazine-2-carboxamide] |
